Data taken from ChEMBL document CHEMBL4507324 (2021).

Columns and labels:
Conditions in all cases: Compound concentration 100.0 nM
[1] = molecular target: BMP-2-inducible protein kinase (Homo sapiens) (UniProt Q9NSY1)
[2] = test system: Mast/stem cell growth factor receptor Kit (Homo sapiens), P10721 [D816H]
[3] = molecular target: Mitogen-activated protein kinase kinase kinase 10 (Homo sapiens) (UniProt Q02779)
[4] = molecular target: Mitogen-activated protein kinase 9 (Homo sapiens) (UniProt P45984)
[5] = molecular target: STE20-like serine/threonine-protein kinase (Homo sapiens) (UniProt Q9H2G2)
[6] = molecular target: Ephrin type-A receptor 3 (Homo sapiens) (UniProt P29320)
[7] = molecular target: Mitogen-activated protein kinase 13 (Homo sapiens) (UniProt O15264)
[8] = test system: Epidermal growth factor receptor (Homo sapiens), P00533 [G719C]
[9] = molecular target: Ribosomal protein S6 kinase alpha-1 (Homo sapiens) (UniProt Q15418)
[10] = molecular target: Tyrosine-protein kinase JAK2 (Homo sapiens) (UniProt O60674)
[11] = molecular target: Mitogen-activated protein kinase 6 (Homo sapiens) (UniProt Q16659)
[12] = molecular target: Serine/threonine-protein kinase TBK1 (Homo sapiens) (UniProt Q9UHD2)
[13] = molecular target: Calcium/calmodulin-dependent protein kinase type 1B (Homo sapiens) (UniProt Q6P2M8)
[14] = test system: Epidermal growth factor receptor (Homo sapiens), P00533 [G719S]
[15] = test system: Tyrosine-protein kinase ABL1 (Homo sapiens), P00519 [E255K]
[16] = molecular target: Dual specificity protein kinase TTK (Homo sapiens) (UniProt P33981)
[17] = test system: Leucine-rich repeat serine/threonine-protein kinase 2 (Homo sapiens), Q5S007 [G2019S]
[18] = molecular target: Serine/threonine-protein kinase Nek9 (Homo sapiens) (UniProt Q8TD19)
[19] = molecular target: Serine/threonine-protein kinase 4 (Homo sapiens) (UniProt Q13043)
[20] = molecular target: Serine/threonine-protein kinase mTOR (Homo sapiens) (UniProt P42345)
[21] = molecular target: Serine/threonine-protein kinase TAO2 (Homo sapiens) (UniProt Q9UL54)
[22] = molecular target: Serine/threonine-protein kinase SIK1 (Homo sapiens) (UniProt P57059)
[23] = molecular target: Mitogen-activated protein kinase kinase kinase 11 (Homo sapiens) (UniProt Q16584)
[24] = molecular target: Homeodomain-interacting protein kinase 1 (Homo sapiens) (UniProt Q86Z02)
[25] = molecular target: Tyrosine-protein kinase Fyn (Homo sapiens) (UniProt P06241)
[26] = molecular target: Phosphatidylinositol 4-phosphate 5-kinase type-1 gamma (Homo sapiens) (UniProt O60331)
[27] = molecular target: Bone morphogenetic protein receptor type-1B (Homo sapiens) (UniProt O00238)
[28] = molecular target: Testis-specific serine/threonine-protein kinase 3 (Homo sapiens) (UniProt Q96PN8)
[29] = molecular target: Mitogen-activated protein kinase kinase kinase kinase 5 (Homo sapiens) (UniProt Q9Y4K4)
[30] = molecular target: High affinity nerve growth factor receptor (Homo sapiens) (UniProt P04629)
[31] = test system: Tyrosine-protein kinase ABL1 (Homo sapiens), P00519 [F317I]
[32] = molecular target: Cyclin-dependent kinase 9 (Homo sapiens) (UniProt P50750)
[33] = molecular target: Activin receptor type-2B (Homo sapiens) (UniProt Q13705)
[34] = test system: Mast/stem cell growth factor receptor Kit (Homo sapiens), P10721 [D816V]
[35] = test system: ALK tyrosine kinase receptor (Homo sapiens), Q9UM73 [C1156Y]
[36] = molecular target: Cyclin-dependent kinase 7 (Homo sapiens) (UniProt P50613)
[37] = molecular target: Activin receptor type-1-like (Homo sapiens) (UniProt P37023)
[38] = molecular target: Wee1-like protein kinase 2 (Homo sapiens) (UniProt P0C1S8)
[39] = molecular target: Mitogen-activated protein kinase kinase kinase 19 (Homo sapiens) (UniProt Q56UN5)
[40] = molecular target: Testis-specific serine/threonine-protein kinase 1 (Homo sapiens) (UniProt Q9BXA7)
[41] = molecular target: Calcium/calmodulin-dependent protein kinase type II subunit gamma (Homo sapiens) (UniProt Q13555)
[42] = molecular target: Dual specificity tyrosine-phosphorylation-regulated kinase 1B (Homo sapiens) (UniProt Q9Y463)
[43] = test system: Epidermal growth factor receptor (Homo sapiens), P00533 [L858R,T790M]
[44] = molecular target: Protein kinase C eta type (Homo sapiens) (UniProt P24723)
[45] = molecular target: TRAF2 and NCK-interacting protein kinase (Homo sapiens) (UniProt Q9UKE5)

Activin receptor type-2B (Homo sapiens), sequence (Q13705 whole entry): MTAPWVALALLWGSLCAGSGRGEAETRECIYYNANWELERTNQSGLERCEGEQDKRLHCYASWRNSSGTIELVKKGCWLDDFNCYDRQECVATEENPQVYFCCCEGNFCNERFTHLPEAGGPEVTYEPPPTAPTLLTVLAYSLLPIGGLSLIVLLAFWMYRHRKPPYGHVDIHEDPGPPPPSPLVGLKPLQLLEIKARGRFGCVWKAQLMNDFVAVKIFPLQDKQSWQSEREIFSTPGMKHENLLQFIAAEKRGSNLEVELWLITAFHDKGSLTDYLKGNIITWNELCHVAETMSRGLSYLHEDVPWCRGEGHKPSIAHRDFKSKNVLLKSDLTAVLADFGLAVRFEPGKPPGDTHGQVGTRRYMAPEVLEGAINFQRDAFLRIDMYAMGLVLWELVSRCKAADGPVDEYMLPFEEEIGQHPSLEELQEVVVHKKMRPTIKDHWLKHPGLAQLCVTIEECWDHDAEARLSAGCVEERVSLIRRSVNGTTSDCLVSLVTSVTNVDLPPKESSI
Tyrosine-protein kinase JAK2 (Homo sapiens), sequence (O60674 whole entry): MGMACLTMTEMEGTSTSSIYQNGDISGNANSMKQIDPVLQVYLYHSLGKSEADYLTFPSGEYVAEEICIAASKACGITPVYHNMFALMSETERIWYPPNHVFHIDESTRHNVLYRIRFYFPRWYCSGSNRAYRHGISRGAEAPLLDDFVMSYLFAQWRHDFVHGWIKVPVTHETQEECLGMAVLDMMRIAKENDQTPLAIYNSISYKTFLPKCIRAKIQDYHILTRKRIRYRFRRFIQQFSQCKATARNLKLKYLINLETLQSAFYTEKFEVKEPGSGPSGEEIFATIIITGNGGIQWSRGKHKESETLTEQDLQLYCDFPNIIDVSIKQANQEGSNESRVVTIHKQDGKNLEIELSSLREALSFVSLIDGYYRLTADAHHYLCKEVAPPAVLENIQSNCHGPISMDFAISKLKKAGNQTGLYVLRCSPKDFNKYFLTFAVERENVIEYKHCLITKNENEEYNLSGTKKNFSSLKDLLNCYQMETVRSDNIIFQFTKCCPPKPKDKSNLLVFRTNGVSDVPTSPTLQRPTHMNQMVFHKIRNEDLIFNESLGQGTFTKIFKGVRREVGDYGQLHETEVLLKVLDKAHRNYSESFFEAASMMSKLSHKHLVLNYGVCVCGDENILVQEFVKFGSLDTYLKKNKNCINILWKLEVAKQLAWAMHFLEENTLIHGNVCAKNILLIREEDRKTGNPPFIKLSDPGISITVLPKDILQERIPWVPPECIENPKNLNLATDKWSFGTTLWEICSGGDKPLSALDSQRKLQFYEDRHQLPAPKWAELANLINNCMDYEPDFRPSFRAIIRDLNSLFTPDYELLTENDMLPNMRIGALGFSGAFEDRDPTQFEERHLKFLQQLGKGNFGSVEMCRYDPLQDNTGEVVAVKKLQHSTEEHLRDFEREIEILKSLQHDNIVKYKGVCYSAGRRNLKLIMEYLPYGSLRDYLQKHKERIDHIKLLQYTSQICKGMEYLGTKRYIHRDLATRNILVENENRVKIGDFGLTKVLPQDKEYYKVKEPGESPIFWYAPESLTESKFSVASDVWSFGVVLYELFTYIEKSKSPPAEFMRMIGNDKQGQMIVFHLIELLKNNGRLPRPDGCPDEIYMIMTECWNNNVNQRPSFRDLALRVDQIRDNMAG
Tyrosine-protein kinase ABL1 (Homo sapiens), P00519 [F317I], sequence (P00519 whole entry F317I): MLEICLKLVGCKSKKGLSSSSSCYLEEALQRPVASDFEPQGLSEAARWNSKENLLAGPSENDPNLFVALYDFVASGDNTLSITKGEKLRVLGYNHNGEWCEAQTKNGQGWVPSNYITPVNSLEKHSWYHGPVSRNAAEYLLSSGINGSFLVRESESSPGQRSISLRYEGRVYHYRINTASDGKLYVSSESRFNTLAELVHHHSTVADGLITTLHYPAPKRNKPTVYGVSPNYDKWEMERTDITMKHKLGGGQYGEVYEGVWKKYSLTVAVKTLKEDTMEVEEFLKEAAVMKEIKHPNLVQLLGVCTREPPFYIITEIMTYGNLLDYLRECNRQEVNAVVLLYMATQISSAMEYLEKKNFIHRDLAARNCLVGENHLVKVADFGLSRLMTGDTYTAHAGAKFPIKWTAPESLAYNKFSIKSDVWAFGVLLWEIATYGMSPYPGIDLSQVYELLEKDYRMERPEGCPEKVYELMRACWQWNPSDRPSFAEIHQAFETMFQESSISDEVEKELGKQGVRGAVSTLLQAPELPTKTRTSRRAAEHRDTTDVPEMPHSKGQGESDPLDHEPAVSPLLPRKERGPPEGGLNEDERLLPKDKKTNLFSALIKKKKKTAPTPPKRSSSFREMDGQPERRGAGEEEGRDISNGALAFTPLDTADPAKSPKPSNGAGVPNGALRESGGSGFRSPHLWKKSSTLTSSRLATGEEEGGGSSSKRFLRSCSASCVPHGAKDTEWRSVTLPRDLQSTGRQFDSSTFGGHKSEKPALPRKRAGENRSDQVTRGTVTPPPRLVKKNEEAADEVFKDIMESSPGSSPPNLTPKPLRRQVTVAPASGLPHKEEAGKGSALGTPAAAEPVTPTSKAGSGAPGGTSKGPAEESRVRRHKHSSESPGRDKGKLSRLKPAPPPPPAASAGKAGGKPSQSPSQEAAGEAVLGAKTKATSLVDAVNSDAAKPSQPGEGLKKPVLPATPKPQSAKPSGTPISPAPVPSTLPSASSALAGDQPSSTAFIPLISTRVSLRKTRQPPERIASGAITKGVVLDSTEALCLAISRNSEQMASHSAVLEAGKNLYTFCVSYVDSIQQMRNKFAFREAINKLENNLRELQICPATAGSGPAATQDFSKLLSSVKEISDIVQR
Activin receptor type-1-like (Homo sapiens), sequence (P37023 whole entry): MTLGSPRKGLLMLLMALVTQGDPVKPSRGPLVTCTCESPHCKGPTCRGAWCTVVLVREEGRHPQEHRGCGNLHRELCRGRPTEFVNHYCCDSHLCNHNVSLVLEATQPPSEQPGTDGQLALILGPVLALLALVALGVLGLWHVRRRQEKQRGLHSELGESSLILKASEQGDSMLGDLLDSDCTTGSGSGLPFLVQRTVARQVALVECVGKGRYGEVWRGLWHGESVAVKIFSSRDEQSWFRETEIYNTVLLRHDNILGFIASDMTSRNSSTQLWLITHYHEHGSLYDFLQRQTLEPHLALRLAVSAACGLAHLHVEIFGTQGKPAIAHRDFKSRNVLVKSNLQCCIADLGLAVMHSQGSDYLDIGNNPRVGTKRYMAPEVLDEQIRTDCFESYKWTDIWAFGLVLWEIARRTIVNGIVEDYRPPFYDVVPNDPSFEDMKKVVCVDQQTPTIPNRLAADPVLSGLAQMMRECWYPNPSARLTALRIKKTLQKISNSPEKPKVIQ
Ephrin type-A receptor 3 (Homo sapiens), sequence (P29320 whole entry): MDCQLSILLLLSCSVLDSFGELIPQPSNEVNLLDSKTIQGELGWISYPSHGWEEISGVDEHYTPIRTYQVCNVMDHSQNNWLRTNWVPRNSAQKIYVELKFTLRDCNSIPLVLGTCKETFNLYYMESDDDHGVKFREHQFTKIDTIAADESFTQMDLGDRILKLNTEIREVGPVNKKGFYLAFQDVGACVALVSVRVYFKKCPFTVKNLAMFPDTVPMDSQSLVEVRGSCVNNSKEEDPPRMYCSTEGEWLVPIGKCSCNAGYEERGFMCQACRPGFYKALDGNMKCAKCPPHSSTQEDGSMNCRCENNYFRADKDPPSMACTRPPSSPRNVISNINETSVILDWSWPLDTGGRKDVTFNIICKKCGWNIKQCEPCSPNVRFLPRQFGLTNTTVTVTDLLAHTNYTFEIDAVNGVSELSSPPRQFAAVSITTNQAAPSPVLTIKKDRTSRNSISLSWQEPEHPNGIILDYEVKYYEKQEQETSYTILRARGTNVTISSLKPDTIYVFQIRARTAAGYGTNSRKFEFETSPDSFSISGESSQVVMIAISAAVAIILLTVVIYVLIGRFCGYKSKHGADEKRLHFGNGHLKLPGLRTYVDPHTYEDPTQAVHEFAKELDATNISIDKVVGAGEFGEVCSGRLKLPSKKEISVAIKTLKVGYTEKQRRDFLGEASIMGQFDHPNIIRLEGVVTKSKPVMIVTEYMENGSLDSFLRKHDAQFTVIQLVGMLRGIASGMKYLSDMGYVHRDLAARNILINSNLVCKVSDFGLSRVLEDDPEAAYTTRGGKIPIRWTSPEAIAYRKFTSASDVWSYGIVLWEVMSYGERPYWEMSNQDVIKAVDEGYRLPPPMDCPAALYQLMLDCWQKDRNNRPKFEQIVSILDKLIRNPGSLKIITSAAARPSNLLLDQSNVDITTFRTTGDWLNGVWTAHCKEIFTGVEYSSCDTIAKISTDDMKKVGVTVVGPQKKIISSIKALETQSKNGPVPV
Tyrosine-protein kinase ABL1 (Homo sapiens), P00519 [E255K], sequence (P00519 whole entry E255K): as the sequence (P00519 whole entry F317I) above, with E255K, I317F counted along it
Mitogen-activated protein kinase 6 (Homo sapiens), sequence (Q16659 whole entry): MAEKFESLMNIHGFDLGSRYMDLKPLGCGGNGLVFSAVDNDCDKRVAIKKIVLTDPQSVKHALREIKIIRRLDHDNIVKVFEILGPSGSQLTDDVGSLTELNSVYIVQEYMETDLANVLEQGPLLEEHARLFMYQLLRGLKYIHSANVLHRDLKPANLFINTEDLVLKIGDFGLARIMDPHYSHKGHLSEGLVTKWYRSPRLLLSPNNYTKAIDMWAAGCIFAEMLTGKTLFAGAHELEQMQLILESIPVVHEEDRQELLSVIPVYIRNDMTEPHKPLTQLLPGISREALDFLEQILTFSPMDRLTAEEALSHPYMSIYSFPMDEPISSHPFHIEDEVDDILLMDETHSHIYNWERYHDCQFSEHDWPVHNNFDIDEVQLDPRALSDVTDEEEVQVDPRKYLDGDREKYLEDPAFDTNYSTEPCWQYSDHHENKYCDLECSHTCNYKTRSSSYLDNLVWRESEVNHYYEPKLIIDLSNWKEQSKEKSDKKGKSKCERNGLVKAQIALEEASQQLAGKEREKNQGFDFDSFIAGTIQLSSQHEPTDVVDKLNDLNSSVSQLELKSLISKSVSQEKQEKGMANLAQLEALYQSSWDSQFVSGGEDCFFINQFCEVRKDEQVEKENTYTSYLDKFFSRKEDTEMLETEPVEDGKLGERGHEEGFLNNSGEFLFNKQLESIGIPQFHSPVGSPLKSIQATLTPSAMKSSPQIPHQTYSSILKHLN

Compound `CS(=O)(=O)N1CCCC(NC(=O)[C@H](CCC2CCCCC2)NC(=O)c2ccc(CNc3ncnc4c3nnn4-c3ccccc3)cc2)C1` (stereo not given in full) [SR-301] has a residual activity [1] of 84%, a residual activity [2] of 68% and a residual activity [3] of 73%. It also gave a residual activity [4] of 83%, a residual activity [5] of 100% and a residual activity [6] of 75%. It also gave a residual activity [7] of 100%, a residual activity [8] of 86% and a residual activity [9] of 100%. The residual activity [10] was 100%, the residual activity [11] was 94% and the residual activity [12] was 88%. The residual activity [13] was 100%, the residual activity [14] was 72% and the residual activity [15] was 87%. The residual activity [16] was 91%, the residual activity [17] was 100% and the residual activity [18] was 100%. It also gave a residual activity [19] of 100%, a residual activity [20] of 100% and a residual activity [21] of 93%. For the same compound, the residual activity [22] was 100%, the residual activity [23] was 92% and the residual activity [24] was 100%. It also gave a residual activity [25] of 56%, a residual activity [26] of 85% and a residual activity [27] of 91%. It also gave a residual activity [28] of 100%, a residual activity [29] of 76% and a residual activity [30] of 100%. For the same compound, the residual activity [31] was 88%, the residual activity [32] was 87% and the residual activity [33] was 83%. For the same compound, the residual activity [34] was 100%, the residual activity [35] was 100% and the residual activity [36] was 100%. The residual activity [37] was 97%, the residual activity [38] was 100% and the residual activity [39] was 92%. The residual activity [40] was 85%, the residual activity [41] was 94% and the residual activity [42] was 100%. It also gave a residual activity [43] of 84%, a residual activity [44] of 79% and a residual activity [45] of 45%.
In the case of `CS(=O)(=O)N1CCCC(NC(=O)[C@H](CCC2CCCCC2)NC(=O)c2ccc(CNC(=O)c3cnc4ccccn34)cc2)C1` (stereo not given in full) [SR-302], the residual activity [1] is reported as 92%, the residual activity [2] is reported as 44% and the residual activity [3] is reported as 100%. The residual activity [4] was 90%, the residual activity [5] was 99% and the residual activity [6] was 97%. The residual activity [7] was 100%, the residual activity [8] was 100% and the residual activity [9] was 92%. For the same compound, the residual activity [10] was 100%, the residual activity [11] was 96% and the residual activity [12] was 75%. It also gave a residual activity [13] of 77%, a residual activity [14] of 100% and a residual activity [15] of 74%. It also gave a residual activity [16] of 91%, a residual activity [17] of 100% and a residual activity [18] of 100%. For the same compound, the residual activity [19] was 100%, the residual activity [20] was 100% and the residual activity [21] was 91%. It also gave a residual activity [22] of 92%, a residual activity [23] of 100% and a residual activity [24] of 100%. The residual activity [25] was 80%, the residual activity [26] was 100% and the residual activity [27] was 100%. The residual activity [28] was 93%, the residual activity [29] was 100% and the residual activity [30] was 100%. The residual activity [31] was 80%, the residual activity [32] was 100% and the residual activity [33] was 100%. The residual activity [34] was 100%, the residual activity [35] was 100% and the residual activity [36] was 100%. For the same compound, the residual activity [37] was 96%, the residual activity [38] was 97% and the residual activity [39] was 71%. The residual activity [40] was 94%, the residual activity [41] was 86% and the residual activity [42] was 100%. It also gave a residual activity [43] of 100%, a residual activity [44] of 95% and a residual activity [45] of 100%.
